This note sets out measurements from a melting point compilation (Tetko et al.; mined from patent text by program, amines drawn as free bases though some values may be those of a salt).

Structures are written as SMILES.

For `Cc1cc(C2=NN=C(C=O)Cc3cc4c(cc32)OCO4)ccc1[N+](=O)[O-]`, the melting point was 188 to 191 °C. Take `CN(CCCCNC(=O)NCCCOc1cccc(CN2CCCCC2)c1)CCN(Cc1ccc(F)cc1)c1ccccn1`: the melting point worked out at 69 °C. Compound `CCCc1c(OCc2ccc(C(=O)NCCCCc3cccnc3)c(OCC)c2)ccc(C(C)=O)c1O` came in with a melting point of 92 to 93 °C. With `CS(=O)(=O)c1ccc(-c2nn(Cc3ccncc3)c(=O)cc2-c2ccc(F)cc2)cc1`, the melting point was in the range of 253 to 254 °C. On to `Clc1ccc2[nH]c3c(Cl)nc4ccccc4c3c2c1`, for which the melting point was 250 °C. To `Cc1nn(C)c(-n2ccc3cc(Cl)ccc32)c1CCS(=O)(=O)NC(=O)OCC1CC1` belongs 170 °C; to `CCCC(=O)OC1=C(c2ccc(OC)cc2)S(=O)c2ccccc2-n2cccc21` (stereo not given), 113 to 115 °C.

For the compound `CCCCc1nc2c(N)nc3ccccc3c2n1CCNC(=O)CCCCC1SCC2NC(=O)NC21` (stereo not given), the melting point was 124 to 126 °C. The same measure for `CCOc1cc(N)c(Cl)cc1C(=O)NC1CCN(CC2CCN(C(=O)CCOC)CC2)CC1`: 175 to 177 °C; for `COC(=O)Cc1nsc(NC(=O)c2ccccc2)n1`: 143 °C. To `CCOC(=O)c1cnc2ccc(C#N)cc2c1O` belongs above 265 °C.

Take `COCC(C)N(C(=O)CCl)c1c(C)cccc1C` (stereo not given): the melting point is 44 to 46 °C. In turn, `C=C(C)Cc1c(C)c(NC(=O)CC(C)(C)C)c(C)c(Cc2ccc(C(C)C)cc2)c1O` returned a melting point of 124 to 125 °C. The same measure for `Cc1noc(NS(=O)(=O)c2ccccc2-c2ccc(-c3ncco3)cc2CN2Cc3ccccc3C2=O)c1C`: 135 to 142 °C; for `CN1C(=O)[C@H](N)N=C(C2CCCCC2)c2ccccc21`: 130 to 133 °C; for `Cc1oc(-c2ccccc2)nc1COc1ccc2c(c1)CCC(C=O)=C2`: 114 to 115 °C. To `CC(C)CNS(=O)(=O)c1ccccc1CCOS(C)(=O)=O` belongs 106 to 108 °C; to `O=c1[nH]c2cc(Cl)ccc2c(O)c1-c1ccc(Br)cc1`, above 350 °C. The same measure for `NS(=O)(=O)c1ccc2c(c1)S(=O)(=O)NC1CCCN21` (stereo not given): 260 to 262 °C; for `Cc1cccc2sc(-n3nc4c(c3O)-c3ccccc3CC4)nc12`: 224 to 225 °C; for `Cc1ccc(NC(=O)c2nc(C)cc(C#N)c2C)nc1`: 212 °C. In the case of `COc1ccc2c(c1)c(C)cc(=O)n2-c1ccc(Cl)cc1`, the melting point was 234 to 235 °C. To `COCc1c(-c2ccno2)ncc2[nH]c3ccc(OCc4ccccc4)cc3c12` belongs 125 to 126 °C; to `COc1ccccc1NC(=O)Nc1nc(Nc2ccc(-c3ccccc3)cc2)nc(N(CCC(=O)O)Cc2ccc(Cl)c(Cl)c2)n1`, 215 to 220 °C. To `COC(=O)c1cccc(-c2ccnc3c(C(=O)c4cccs4)cnn23)c1` belongs 180 to 184 °C; to `NCCCCCc1nc2ccccc2[nH]1`, 101 °C. To `COc1ccc(CC(NC(C)=O)C(=O)O)cc1` (racemic) belongs 144 to 146 °C; to `O=c1ncc(Cl)cn1COCc1cccc(C(F)(F)F)c1`, 95 °C; to `O=C(NCCn1cncn1)c1ccco1`, 131 to 133 °C. Turning to `Cc1ccc(C)n1CCNC(N)=O`, the melting point lay in the range of 139 to 141 °C. To `CCOc1cc(-c2cc(C(F)(F)F)n3ncc(C(=O)Nc4cccc(S(=O)(=O)NC5CC5)c4)c3n2)ccc1C(F)(F)F` belongs 225 °C; to `COc1ccc(CN(C)C)cc1CO`, 67 to 69 °C; to `O=C(NNC(=O)c1ccccc1C(F)(F)F)c1ccccc1Cl`, 81.5 to 82.5 °C. The same measure for `CCC12CCC(=O)C=C1c1c(cc(OC(C)C(=O)OC3COC(C)(C)O3)c(Cl)c1Cl)C2` (stereo not given): 143 to 145 °C. To `CCOC(=O)c1ccc(-c2coc(-c3ccccc3)n2)cc1` belongs 110 to 112 °C; to `CCOC(=O)c1cnn(-c2c(F)cc(C(F)(F)F)cc2Cl)c1N`, 147 to 149 °C; to `Nc1nc(S(N)(=O)=O)c2[nH]cnc2n1`, above 250 °C.

`CC1(C)CC(=O)CC(C)(C)N1CCCCCCN1C(C)(C)CC(=O)CC1(C)C` yielded a melting point of 151 to 152 °C.

As for `O=C(CCCCl)Nc1ccccc1`, the melting point was in the range of 64 to 66 °C.

`COC(C)c1cccc2[nH]c3cnc(C(=O)OC(C)C)c(C)c3c12` (stereo not given) displayed a melting point of 153 to 154 °C. The same measure for `NC(=O)c1c(N)oc2ccc(Cl)cc2c1=O`: 320 °C; for `CN1CCCCC1Cn1nc(-c2c(-c3ccccc3)nn3ccccc23)ccc1=O` (stereo not given): 154 to 155 °C. The same measure for `CN(C)c1cccc(OC(=O)NC2C(=O)N(CCC(C)(C)C)c3ccccc3N(c3ccccc3F)C2=O)c1` (stereo not given): 160 to 161 °C; for `CCCCCCCCCCCCc1ccccc1C(SCC(=O)O)C(=O)O` (stereo not given): 65 to 66 °C; for `CC[C@@]12C[C@H](N)[C@](O)(c3ccccc3)C[C@H]1CCc1cc(O)ccc12`: 209 to 210 °C.

Turning to `CCC(CC(=O)NC(=O)OC(C)(C)C)Nc1ccccc1` (stereo not given), the melting point fell in the range of 105 to 106 °C. The same measure for `CC1(C)C(=O)Nc2ccc(-c3cc(F)cc([N+](=O)[O-])c3)cc21`: 231 to 233 °C; for `Cc1cc(C)c(C(O)c2cccc(-n3ccnc3)c2)c(C)c1` (stereo not given): 191 to 193 °C. The same measure for `O=C(NOCC(O)CO)c1ccc(F)c(F)c1Nc1ccccc1F` (stereo not given): 113 to 115 °C; for `O=C(O)CCCC12CCC(=O)N1C(=O)CC2`: 178 to 180 °C.

Compound `NC(=O)c1cc(F)c(N[C@H]2CC[C@H](N)CC2)cc1F` gave a melting point of 209 to 210 °C. The same measure for `CC(NC(=O)C(NC(=O)c1ccccc1)SC(=O)c1ccccc1)C(=O)N1CCCC1C(=O)O` (stereo not given): 185 to 188 °C. In the case of `COc1cc(OC)c2ncc(C(=O)NCc3ccc(Cl)cc3)c(O)c2c1`, the melting point was in the range of 270 to 271 °C. The same measure for `Cc1nc(C)c(CBr)nc1C`: 41.2 to 44 °C. To `CC12CCC3c4ccc(O)cc4CCC3C1CC=C2c1cccnc1` (stereo not given) belongs 256 to 258 °C; to `O=C(C=Cc1ccc(C(F)(F)F)cc1)N1CCOCC1`, 142 to 144 °C; to `Cc1nc(NC(=O)n2ccnc2)sc1-c1ccnc(CC2CC2)n1`, 240 to 243 °C. The same measure for `Cn1nc2c(N)nc3ccccc3c2c1CC(C)(C)O`: 256 to 257 °C. `CCCCc1c(CN2C(=O)c3ccccc3C2=O)c(CC(C)C)nc2ccc(OCc3ccccc3)cc12` had a melting point of 166 to 168 °C. To `CN1C(=O)C(c2ccc(OC(F)(F)F)c(F)c2)(c2ccc(F)c(-c3cncnc3)c2)N=C1N` (stereo not given) belongs 102 to 110 °C; to `NS(=O)(=O)c1cc2cc(CCBr)ccc2s1`, 118 to 120 °C. In the case of `CN(C)Cc1c[nH]c2c(F)cccc12`, the melting point was in the range of 133 to 137 °C. The same measure for `CCCCC[C@H]1CC[C@H](c2ccc(F)c(F)c2)CC1`: -9.5 °C; for `CCCCc1nc2c(c(C)c(C)n3nnnc23)n1CC(C)(C)N`: 144 to 147 °C. To `O=C1Nc2ccc(Br)cc2C(c2ccccc2F)=NC1O` (stereo not given) belongs 196 to 198 °C; to `Cc1ccc2c(NC(=NC#N)NC(NC(=O)Cc3ccc(Cl)cc3)C(C)(C)C)cccc2n1` (stereo not given), 198 to 199 °C. To `C#C[C@@H](C)N(O)C(N)=O` belongs 120 to 123 °C; to `CC(C)c1ccccc1-c1nc(-c2ccccc2)n[nH]1`, 165 to 167 °C. The compound `COc1ccc(Br)c2c1CN(Nc1ccncc1)CC2` yielded a melting point of 172 to 173 °C. As for `C[C@H](O)C(=O)Nc1c(C(=O)c2cc(CO)co2)[nH]c2cc(Cl)ccc12`, the melting point fell in the range of 213 to 214 °C. The same measure for `O=C1C(=Cc2cccs2)CCc2cc(OCCn3ccnc3)ccc21`: 137 to 138 °C. To `COC(=O)C(CCCCNC(=O)c1ccc(N)cc1)n1c2ccccc2c2ccccc21` (stereo not given) belongs 90 to 91 °C; to `Cc1oc2nc(C(=O)O)nc(OCCN(C)C)c2c1C`, 179 to 180 °C; to `CCCSc1nc(N)nc2c1ncn2C1C=CC(CO)C1` (stereo not given), 128 to 130 °C. To `COc1ccc(NC(=O)c2cc([N+](=O)[O-])ccc2NC(=O)c2ccc(C(C)(C)C)cc2)cc1` belongs 210 to 211 °C; to `CCOC(=O)C1=COc2cc(C(C)=O)ccc2O1`, 122 °C; to `Cc1cccc2c(Cc3nc4c(F)c(F)cc(F)c4s3)cn(CC(=O)O)c12`, 216 to 218 °C. The compound `Cn1nc(C(F)F)[nH]c1=O` displayed a melting point of 141 °C. Regarding `CCOC(=O)/C=C/c1cn(C)c2ccccc12`, the melting point was in the range of 94 to 98 °C. To `CCc1n[nH]c(C(N)=O)c1NC(=O)c1cc(S(C)(=O)=O)ccc1OCc1ccccn1` belongs 134 to 138 °C; to `CCc1cnc2c(NC(=O)c3c(Cl)cccc3Cl)cccc2c1CC(=O)NCc1ccccn1`, 162 to 163 °C; to `CCCCc1ccc2c(c1)CC(C(=O)OCC)=NN2`, 150 to 152 °C. To `O=c1oc2ccccc2c(O)c1C1CC(c2ccc(Cc3ccc(-c4ccccc4)cc3)cc2)Cc2ccccc21` (stereo not given) belongs 118 to 121 °C; to `O=c1ccn(-c2cc3[nH]c(=O)c(=O)[nH]c3cc2F)cc1`, above 300 °C; to `CCCCCCCCCCOc1cc(N=Nc2ccccc2)ccc1OCC1CC1`, 58 to 60 °C. Compound `Cc1cccc(C)c1C(=O)Oc1cc([N+](=O)[O-])cc([N+](=O)[O-])c1O` had a melting point of 163 to 165 °C. The same measure for `O=C1c2cccc3cc([N+](=O)[O-])cc(c23)C(=O)N1O`: 277 to 279 °C; for `C[C@]1(COc2ccc(N3CCC(OCC=Cc4ccc(OC(F)(F)F)cc4)CC3)cc2)Cn2cc([N+](=O)[O-])nc2O1`: 214 to 217 °C; for `CCCSc1sc(C(=O)NC)c2c1-c1c(cnn1CC(F)(F)F)CC2`: 75 to 76 °C.

As for `CCOc1nn(-c2ccc(C(F)(F)F)cn2)cc1CCCOc1cc(CC(=O)O)cc(OC)c1`, the melting point fell in the range of 125 to 126 °C.
